These are literature values, as cited in US20080138388A1 (priority 2005, published 2008).

Like-named read-outs stand apart in the source and are kept apart here.

In the case of `Nc1c(Br)cc(Br)cc1CN[C@H]1CC[C@H](O)CC1` [ambroxol], where the note is “free state”, the “logP (octanol-water partition coefficient, free state)” value is recorded as 3.00. Consider `CCCN1C[C@H](CSC)C[C@@H]2c3cccc4[nH]cc(c34)C[C@H]21` [pergolide], for which the “logP (octanol-water partition coefficient, free state)” value (free state) is 4.07. Take `OC(CCN1CCCCC1)(c1ccccc1)c1ccccc1` [pridinol]: for the setting “free state”, the “logP (octanol-water partition coefficient, free state)” value was 3.79. As for `CCOc1ccccc1OCCN[C@H](C)Cc1ccc(OC)c(S(N)(=O)=O)c1` [tamsulosin], the “logP (octanol-water partition coefficient, free state)” value (free state) is on record as 3.22.

`CCOC(=O)[C@H](CCc1ccccc1)N[C@@H](C)C(=O)N1[C@H](C(=O)O)C[C@H]2CCCC[C@@H]21` [trandopril]: the “logP (octanol-water partition coefficient, free state)” value is 4.00.
